# In patent US20080114007A1 (priority 2006, published 2008):
# Tests used:
# c-fms = c-fms (Homo sapiens, UniProt P07333); assay: Autophosphorylation, fluorescence polarization competition immunoassay; type: biochemical; conditions: 10 nM c-fms, 1 mM ATP, 5 mM MgCl2, 45 min; averages of three independent measurements
# Protocol: The assay buffer used was 100 mM 4-(2-hydroxyethyl)piperazine 1-ethanesulfonic acid (HEPES), pH 7.5, 1 mM 1,4-dithio-DL-threitol (DTT), 0.01% (v/v) Tween-20. Compounds were diluted in assay buffer containing 4% dimethylsulfoxide (DMSO) just prior to the assay. […] The kinase reaction was initiated by adding 2 μL of 5 mM ATP (Sigma) in assay buffer. The final concentrations in the assay were 10 nM c-fms, 1 mM ATP, 5 mM MgCl2, 2% DMSO. Control reactions were ran in each plate: in positive and negative control wells, assay buffer (made 4% in DMSO) was substituted for the compound; in addition, positive control wells received 1.2 μL of 50 mM ethylenediaminetetraacetic acid (EDTA).
# At the end of the incubation, the reaction was quenched with 1.2 μL of 50 mM EDTA (EDTA was not added to the positive control wells at this point; see above). Following a 5-min incubation, each well received 10 μL of a 1:1:3 mixture of anti-phosphotyrosine antibody, 10×, PTK green tracer, 10× (vortexed), FP dilution buffer, respectively (all from PanVera, cat. # P2837). The plate was covered, incubated for 30 min at room temperature and the fluorescence polarization was read on the Analyst.
# The IC50 values shown in Table 1 are averages of three independent measurements.
# CSF-1R = CSF-1R (Homo sapiens, UniProt P07333); assay: Peptide (non-phosphorylated) assay, fluorescence polarization competition immunoassay; type: biochemical; conditions: 0.7 nM CSF-1R, 308 μM SYEGNSYTFIDPTQ peptide, 1 mM ATP, 80 min; mean of at least three determinations; read-out: c-fms Peptide IC50
# Summary of the method: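 Read-out is fluorescence polarization: after EDTA quench, anti-phosphotyrosine antibody plus PTK green tracer compete with the phosphorylated peptide for 30 min. The CSF-1R reaction itself ran 80 min at room temperature after ATP addition. DMSO (4%) wells served as controls, positive controls pre-treated with EDTA.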
# Sequence of CSF-1R (P07333 20-972): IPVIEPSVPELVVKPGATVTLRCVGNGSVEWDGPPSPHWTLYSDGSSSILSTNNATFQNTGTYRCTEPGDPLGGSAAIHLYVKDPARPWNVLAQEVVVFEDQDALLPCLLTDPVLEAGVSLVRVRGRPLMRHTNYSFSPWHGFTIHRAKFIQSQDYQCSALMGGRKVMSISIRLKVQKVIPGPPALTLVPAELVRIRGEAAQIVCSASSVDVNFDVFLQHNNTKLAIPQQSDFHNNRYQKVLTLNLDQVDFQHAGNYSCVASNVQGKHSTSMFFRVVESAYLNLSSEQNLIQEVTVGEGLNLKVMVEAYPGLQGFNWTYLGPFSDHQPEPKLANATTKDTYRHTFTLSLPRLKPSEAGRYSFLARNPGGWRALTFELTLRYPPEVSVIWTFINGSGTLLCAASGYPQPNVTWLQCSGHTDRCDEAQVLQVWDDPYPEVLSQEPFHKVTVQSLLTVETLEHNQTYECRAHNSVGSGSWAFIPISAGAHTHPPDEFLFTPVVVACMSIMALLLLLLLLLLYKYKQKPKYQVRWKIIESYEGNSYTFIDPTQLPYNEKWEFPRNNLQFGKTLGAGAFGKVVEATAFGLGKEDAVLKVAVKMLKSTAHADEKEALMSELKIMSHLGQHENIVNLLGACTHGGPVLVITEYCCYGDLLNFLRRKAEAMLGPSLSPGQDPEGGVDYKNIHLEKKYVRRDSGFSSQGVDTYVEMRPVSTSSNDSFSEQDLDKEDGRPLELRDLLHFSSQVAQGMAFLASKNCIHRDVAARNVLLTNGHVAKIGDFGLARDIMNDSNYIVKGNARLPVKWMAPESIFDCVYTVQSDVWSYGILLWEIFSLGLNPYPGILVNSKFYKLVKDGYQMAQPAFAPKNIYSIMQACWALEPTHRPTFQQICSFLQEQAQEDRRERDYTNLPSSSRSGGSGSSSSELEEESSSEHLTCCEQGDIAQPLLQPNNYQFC
# Sequence of c-fms (P07333 20-972): as above
Structure (SMILES),IC50 (c-fms) [nM],IC50 (CSF-1R) [nM]
"NC(=O)c1cn(-c2ccc3c(c2)CCC3)c2nc(Nc3ccc(CN4CCCCC4)cc3)ncc2c1=O [Cpd 119, 8-indan-5-yl-5-oxo-2-(4-piperidin-1-ylmethyl-phenylamino)-5,8-dihydro-pyrido[2,3-d]pyrimidine-6-carboxylic acid amide]",2.6,–
"CNC(=O)c1cn(-c2ccc3c(c2)CCC3)c2nc(Nc3cccc(C(=O)N4CCCCC4)c3)ncc2c1=O [Cpd 113, 8-indan-5-yl-5-oxo-2-[3-(piperidine-1-carbonyl)-phenylamino]-5,8-dihydro-pyrido[2,3-d]pyrimidine-6-carboxylic acid methylamide]",> 1000,–
"CONC(=O)c1cn(-c2ccc3c(c2)CCC3)c2nc(Nc3ccc(C4CCN(CC(=O)NS(C)(=O)=O)CC4)cc3)ncc2c1=O [Cpd 87, 8-indan-5-yl-2-{4-[1-(2-methanesulfonylamino-2-oxo-ethyl)-piperidin-4-yl]-phenylamino}-5-oxo-5,8-dihydro-pyrido[2,3-d]pyrimidine-6-carboxylic acid methoxy-amide]",–,2.4
"CCONC(=O)c1cn(-c2ccc3c(c2)CCC3)c2nc(Nc3ccc(C[C@H]4COC(=O)N4)cc3)ncc2c1=O [Cpd 68, (S)-8-indan-5-yl-5-oxo-2-[4-(2-oxo-oxazolidin-4-ylmethyl)-phenylamino]-5,8-dihydro-pyrido[2,3-d]pyrimidine-6-carboxylic acid ethoxy-amide]",–,0.7
"CONC(=O)c1cn(-c2ccc3c(c2)CCC3)c2nc(Nc3ccc(C4CCN(CC(=O)O)CC4)cc3)ncc2c1=O [Cpd 85, {4-[4-(8-indan-5-yl-6-methoxycarbamoyl-5-oxo-5,8-dihydro-pyrido[2,3-d]pyrimidin-2-ylamino)-phenyl]-piperidin-1-yl}-acetic acid]",–,2.2
"CONC(=O)c1cn(-c2ccc3c(c2)CCC3)c2nc(Nc3cccc(C4(O)CCNC4)c3)ncc2c1=O (stereo not drawn) [Cpd 274, 2-[3-(3-hydroxy-pyrrolidin-3-yl)-phenylamino]-8-indan-5-yl-5-oxo-5,8-dihydro-pyrido[2,3-d]pyrimidine-6-carboxylic acid methoxy-amide]",–,0.44

# More lines, now with the values ahead:
IC50 (c-fms) [nM],IC50 (CSF-1R) [nM],Structure (SMILES)
–,0.61,"CCc1ccc(-n2cc(C(=O)NOC)c(=O)c3cnc(Nc4ccc(CCN5CCC5)cc4)nc32)cc1 [Cpd 260, 2-[4-(2-azetidin-1-yl-ethyl)-phenylamino]-8-(4-ethyl-phenyl)-5-oxo-5,8-dihydro-pyrido[2,3-d]pyrimidine-6-carboxylic acid methoxy-amide]"
–,2.2,"CONC(=O)c1cn(-c2ccc3c(c2)CCC3)c2nc(Nc3ccc(-n4cccn4)cc3)ncc2c1=O [Cpd 284, 8-indan-5-yl-5-oxo-2-(4-pyrazol-1-yl-phenylamino)-5,8-dihydro-pyrido[2,3-d]pyrimidine-6-carboxylic acid methoxy-amide]"
–,0.8,"CONC(=O)c1cn(-c2ccc(C)c(C)c2)c2nc(Nc3ccc(CCN4CCN(C)CC4)cc3)ncc2c1=O [Cpd 52, 8-(3,4-dimethyl-phenyl)-2-{4-[2-(4-methyl-piperazin-1-yl)-ethyl]-phenylamino}-5-oxo-5,8-dihydro-pyrido[2,3-d]pyrimidine-6-carboxylic acid methoxy-amide]"
–,0.68,"CCc1ccc(-n2cc(C(=O)NOC)c(=O)c3cnc(Nc4cccc(NC(=O)CN(C)C)c4)nc32)cc1 [Cpd 228, 2-[3-(2-dimethylamino-acetylamino)-phenylamino]-8-(4-ethyl-phenyl)-5-oxo-5,8-dihydro-pyrido[2,3-d]pyrimidine-6-carboxylic acid methoxy-amide]"
–,6.3,"CONC(=O)c1cn(-c2ccc3c(c2)CCC3)c2nc(Nc3cccc(C(=O)NCCN4CCCC4)c3)ncc2c1=O [Cpd 192, 8-indan-5-yl-5-oxo-2-[3-(2-pyrrolidin-1-yl-ethylcarbamoyl)-phenylamino]-5,8-dihydro-pyrido[2,3-d]pyrimidine-6-carboxylic acid methoxy-amide]"
–,1.6,"CCc1ccc(-n2cc(C(=O)NOC)c(=O)c3cnc(Nc4cccc(OCCCOC)c4)nc32)cc1 [Cpd 216, 8-(4-ethyl-phenyl)-2-[3-(3-methoxy-propoxy)-phenylamino]-5-oxo-5,8-dihydro-pyrido[2,3-d]pyrimidine-6-carboxylic acid methoxy-amide]"
